“Also recorded” adds a separate entry of the source.
Tests used:
[1] = system: Kasumi-1 transplanted tumor of leukemia; assay: Inhibition of transplanted tumor of leukemia in NOD/SCID mice; type: in vivo; conditions: for Mass of tumor / Tumor Inhibition rate (%): Kasumi-1 in NOD/SCID mice, three times a day, 10 days, Day 31
Description: Leukemia cell lines: Kasumi-1 (acute myeloid leukemia M2 type, AML-M2)
(§1) Animal: NOD/SCID mice (multiple immunodeficiency mice), 8 weeks, female, purchased from Shanghai Laboratory Animal Center of Chinese Academy of Sciences, China.
(§2) BS-HH-002, wherein BS-HH-002-0.1 indicates a dosage of 0.1 mg/kg each time, and BS-HH-002-0.3 indicates a dosage of 0.3 mg/kg each time.
(§3) Under sterile conditions, the above tumor cells in the logarithmic growth phase are collected and injected in an amount of 5×10^7/0.2 ml/mice (cell viability>95%) by subcutaneous injection into the right subaxillary of NOD/SCID mice, thus establishing an NOD/SCID mice model bearing transplanted tumor of leukemia. The mice are administered on the third day after the inoculation, wherein the experimental groups are intragastrically administered in an experimentally designed amount and the negative control group is intragastrically administered with sterile water. Each mouse is intragastrically administered three times a day in 0.4 ml each time, at 8:00, 14:00 and 20:00 with 6-hour intervals, and is successively administered for 10 days. The day before administration is Day 0 and the weight and tumor size are determined approximately every 5 days to produce a dynamic plot on weight and tumor growth. On Day 31, the mice are dissected and the tumors are taken out and weighed. The tumor inhibition rate (%) after the application of medicament is determined based on the tumor inhibition rate of the control group being zero.
(§4) The values determined are presented as mean±standard error (M±SD). The experimental data for each group are analyzed by the One-way ANOVA method of SPSS 18.0 Statistical Software, and p<0.05 is deemed as having statistically significant difference.

[2] = Body weight and toxicity in tumor-bearing NOD/SCID mice; type: in vivo; conditions: for Weight (g) Final / Weight (g) Initial: three times a day, 10 days; for Weight (g) Initial: initial (Day 0)
Description: as §1, §2, §3, §4

With `COC(=O)C[C@](O)(CCCC(C)(C)OC(C)=O)C(=O)O[C@@H]1C(OC)=C[C@]23CCCN2CCc2cc4c(cc2[C@H]13)OCO4` [BS-HH-002, 6-acetylhomoharringtonine] the “Mass of tumor” value ([1]; 0.1 mg/kg/time intragastric) was 1.67 ± 0.36 g, the “Tumor Inhibition rate (%)” value ([1]; 0.1 mg/kg/time intragastric) was 43.31% and the “Mass of tumor” value ([1]; 0.3 mg/kg/time intragastric) was 1.60 ± 0.75 g. For the same compound, the “Tumor Inhibition rate (%)” value ([1]; 0.3 mg/kg/time intragastric) was 45.74%, the “tumor inhibition effect on transplanted tumor of leukemia” value ([1]; NOD/SCID mice, FIG. 5 tumor growth curve) was “remarkable tumor inhibition effect” and the “effect on weight of the transplanted tumor of leukemia” value ([1]; NOD/SCID mice, FIG. 6) was “substantially reduced”. For the same compound, the “inhibition rate of transplanted tumor of leukemia” value ([1]; NOD/SCID mice, dosage of both 0.1 and 0.3 mg/kg) was “over 40%”, the “Weight (g) Final” value ([2]; 0.1 mg/kg/time intragastric) was 26.7 ± 1.92 g and the “Weight (g) Initial” value ([2]; 0.1 mg/kg/time intragastric) was 21.48 ± 0.05 g. The “Weight (g) Final” value ([2]; 0.3 mg/kg/time intragastric) was 27.45 ± 2.48 g, the “Weight (g) Initial” value ([2]; 0.3 mg/kg/time intragastric) was 22.45 ± 0.13 g and the “toxic or side effect” value ([2]; 0.1 and 0.3 mg/kg each time) was “does not have any obvious toxic or side effect; also recorded: does not demonstrate an obvious toxicity”. The “impact on animal weight” value ([2]; initial vs final weight) was “does not have substantial impact on animal weight”.

From patent US9428519B2, “Acylated derivative of homoharringtonine, preparation method therefor, and application thereof” (HANGZHOU BENSHENG PHARMACEUTICAL CO., LTD., priority 2011, dated 2016)
